This passage reports IC50 results from patent US8912176B2 (Evotec AG, priority 2009, dated 2014).

Structures are written as SMILES. pIC50: −log10 of the molar value. Some results are limits rather than exact numbers.

The target in this experiment is human H3 receptor (Homo sapiens, UniProt Q9Y5N1). As to the kind of experiment: cAMP quantification assay for human H3 receptor (DiscoveRx cAMP XS+).
Chain of human H3 receptor (Q9Y5N1 whole entry): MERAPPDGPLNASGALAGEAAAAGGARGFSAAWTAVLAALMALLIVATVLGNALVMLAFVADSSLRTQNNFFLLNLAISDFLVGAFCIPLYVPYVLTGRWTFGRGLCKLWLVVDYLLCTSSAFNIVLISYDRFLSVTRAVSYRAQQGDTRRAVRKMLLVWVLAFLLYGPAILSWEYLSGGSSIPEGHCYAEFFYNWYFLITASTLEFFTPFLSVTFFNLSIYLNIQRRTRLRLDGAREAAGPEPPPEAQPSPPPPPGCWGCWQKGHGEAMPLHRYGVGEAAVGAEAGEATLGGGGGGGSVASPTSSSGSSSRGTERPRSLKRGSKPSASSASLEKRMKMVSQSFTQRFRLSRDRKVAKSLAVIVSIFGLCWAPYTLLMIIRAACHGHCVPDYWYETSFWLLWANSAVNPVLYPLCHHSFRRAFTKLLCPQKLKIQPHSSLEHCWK
For orientation: pIC50 means the IC50 on a negative log10 scale, so that one unit is a factor of ten. A high value points to a small IC50. `O=C(c1ccc(-n2cccn2)nc1)N1CC(C(=O)N2CCCN(C3CCC3)CC2)C1` [Example 14, 1-cyclobutyl-4-[(1-{[6-(1H-pyrazol-1-yl)pyridin-3-yl]carbonyl}azetidin-3-yl)carbonyl]-1,4-diazepane]: the pIC50 was greater than 7.30.

As for `O=C(Cc1ccc(Cl)cc1)N1CC(C(=O)N2CCCN(C3CCC3)CC2)C1` [Example 54, 1-({1-[(4-chlorophenyl)acetyl]azetidin-3-yl}carbonyl)-4-cyclobutyl-1,4-diazepane], the pIC50 was greater than 7.30.

The compound `O=C(C1CN(S(=O)(=O)c2ccccc2)C1)N1CCCN(C2CCC2)CC1` [Example 26, 1-cyclobutyl-4-{[1-(phenylsulfonyl)azetidin-3-yl]carbonyl}-1,4-diazepane] had a negative-log IC50 (pIC50) greater than 7.30.

Turning to `Cc1ccc(OCC(=O)N2CC(C(=O)N3CCCN(C4CCC4)CC3)C2)cn1` [Example 21, 1-cyclobutyl-4-[(1-{[(6-methylpyridin-3-yl)oxy]acetyl}azetidin-3-yl)carbonyl]-1,4-diazepane], the negative logarithm of the IC50 (pIC50) is greater than 7.30.

`CCN1CCCN(C(=O)C2CN(C(=O)c3ccc(C)nc3)C2)CC1` [Example 80, 1-ethyl-4-({1-[(6-methylpyridin-3-yl)carbonyl]azetidin-3-yl}carbonyl)-1,4-diazepane] gave a negative logarithm of the IC50 (pIC50) greater than 7.30.

With `N#Cc1ccc(NC(=O)N2CC(C(=O)N3CCCN(C4CCC4)CC3)C2)cc1` [Example 59, N-(4-cyanophenyl)-3-[(4-cyclobutyl-1,4-diazepan-1-yl)carbonyl]azetidine-1-carboxamide], the negative-log IC50 (pIC50) was greater than 7.30.

On to `Cc1cc(C)n(-c2ccc(C(=O)N3CC(C(=O)N4CCCN(C5CCC5)CC4)C3)cc2)n1` [Example 30, 1-cyclobutyl-4-[(1-{[4-(3,5-dimethyl-1H-pyrazol-1-yl)phenyl]carbonyl}azetidin-3-yl)carbonyl]-1,4-diazepane], for which the pIC50 was greater than 7.30.

As to `Cc1ccc(C(=O)N2CC(C(=O)N3CCN(C4CCC4)CC3)C2)cn1` [Example 87, 1-cyclobutyl-4-({1-[(6-methylpyridin-3-yl)carbonyl]azetidin-3-yl}carbonyl)piperazine], the pIC50 was 5.30 to 7.00.

In turn, `CS(=O)(=O)c1ccc(C(=O)N2CC(C(=O)N3CCCN(C4CCC4)CC3)C2)cc1` [Example 55, 1-cyclobutyl-4-[(1-{[4-(methylsulfonyl)phenyl]carbonyl}azetidin-3-yl)carbonyl]-1,4-diazepane] gave a negative logarithm of the IC50 (pIC50) greater than 7.30.

With `Cc1ccc(C(=O)N2CC(C(=O)N3CCCN(CC4CC4)CC3)C2)cn1` [Example 83, 1-(cyclopropylmethyl)-4-({1-[(6-methylpyridin-3-yl)carbonyl]azetidin-3-yl}carbonyl)-1,4-diazepane], the pIC50 was 5.30 to 7.00.

`CN(CC1CCOCC1)C(=O)N1CC(C(=O)N2CCCN(C3CCC3)CC2)C1` [Example 61, 3-[(4-cyclobutyl-1,4-diazepan-1-yl)carbonyl]-N-methyl-N-(tetrahydro-2H-pyran-4-ylmethyl)azetidine-1-carboxamide] showed a negative-log IC50 (pIC50) greater than 7.30.

With `O=C(NCC1CCOCC1)N1CC(C(=O)N2CCCN(C3CCC3)CC2)C1` [Example 57, 3-[(4-cyclobutyl-1,4-diazepan-1-yl)carbonyl]-N-(tetrahydro-2H-pyran-4-ylmethyl)azetidine-1-carboxamide], the pIC50 was greater than 7.30.

`O=C(CC1CCOCC1)N1CC(C(=O)N2CCCN(C3CCC3)CC2)C1` [Example 53, 1-cyclobutyl-4-{[1-(tetrahydro-2H-pyran-4-ylacetyl)azetidin-3-yl]carbonyl}-1,4-diazepane] gave a pIC50 of 5.30 to 7.00.

`O=C(CN1CCOCC1)N1CC(C(=O)N2CCCN(C3CCC3)CC2)C1` [Example 17, 1-cyclobutyl-4-{[1-(morpholin-4-ylacetyl)azetidin-3-yl]carbonyl}-1,4-diazepane] gave a negative logarithm of the IC50 (pIC50) greater than 7.30.

In turn, `Cc1cnc(C(=O)N2CC(C(=O)N3CCCN(C4CCC4)CC3)C2)cn1` [Example 9, 1-cyclobutyl-4-({1-[(5-methylpyrazin-2-yl)carbonyl]azetidin-3-yl}carbonyl)-1,4-diazepane] showed a negative logarithm of the IC50 (pIC50) greater than 7.30.

`O=C(CN1CCS(=O)(=O)CC1)N1CC(C(=O)N2CCCN(C3CCC3)CC2)C1` [Example 18, 1-cyclobutyl-4-({1-[(1,1-dioxidothiomorpholin-4-yl)acetyl]azetidin-3-yl}carbonyl)-1,4-diazepane] had a pIC50 greater than 7.30.

Regarding `Cc1ccc(C(=O)N2CC(C(=O)N3CCCN(C4CCCC4)CC3)C2)cn1` [Example 81, 1-cyclopentyl-4-({1-[(6-methylpyridin-3-yl)carbonyl]azetidin-3-yl}carbonyl)-1,4-diazepane], the negative logarithm of the IC50 (pIC50) is greater than 7.30.

`O=C(C1CN(C(=O)N2CCCCC2)C1)N1CCCN(C2CCC2)CC1` [Example 2, 1-cyclobutyl-4-{[1-(piperidin-1-ylcarbonyl)azetidin-3-yl]carbonyl}-1,4-diazepane] gave a pIC50 greater than 7.30.

The compound `O=C(CN1CCC(F)(F)CC1)N1CC(C(=O)N2CCCN(C3CCC3)CC2)C1` [Example 20, 1-cyclobutyl-4-({1-[(4,4-difluoropiperidin-1-yl)acetyl]azetidin-3-yl}carbonyl)-1,4-diazepane] showed a pIC50 greater than 7.30.

For `CC(C)(O)c1ccc(C(=O)N2CC(C(=O)N3CCCN(C4CCC4)CC3)C2)cn1` [Example 76, 2-[5-({3-[(4-cyclobutyl-1,4-diazepan-1-yl)carbonyl]azetidin-1-yl}carbonyl)pyridin-2-yl]propan-2-ol], the pIC50 is greater than 7.30.

Consider `N#Cc1ccc(CNC(=O)N2CC(C(=O)N3CCCN(C4CCC4)CC3)C2)cc1` [Example 66, N-(4-cyanobenzyl)-3-[(4-cyclobutyl-1,4-diazepan-1-yl)carbonyl]azetidine-1-carboxamide], for which the pIC50 is greater than 7.30.

`O=C(CC1CCCCC1)N1CC(C(=O)N2CCCN(C3CCC3)CC2)C1` [Example 33, 1-cyclobutyl-4-{[1-(cyclohexylacetyl)azetidin-3-yl]carbonyl}-1,4-diazepane] showed a pIC50 greater than 7.30.

`O=C(c1ccc(-n2cncn2)c(F)c1)N1CC(C(=O)N2CCCN(C3CCC3)CC2)C1` [Example 78, 1-cyclobutyl-4-[(1-{[3-fluoro-4-(1H-1,2,4-triazol-1-yl)phenyl]carbonyl}azetidin-3-yl)carbonyl]-1,4-diazepane] showed a negative-log IC50 (pIC50) greater than 7.30.

For the compound `Cc1noc(-c2ccc(C(=O)N3CC(C(=O)N4CCCN(C5CCC5)CC4)C3)cc2)n1` [Example 41, 1-cyclobutyl-4-[(1-{[4-(3-methyl-1,2,4-oxadiazol-5-yl)phenyl]carbonyl}azetidin-3-yl)carbonyl]-1,4-diazepane], the negative-log IC50 (pIC50) was greater than 7.30.

Consider `O=C(c1ccc(-c2ccncc2)cc1)N1CC(C(=O)N2CCCN(C3CCC3)CC2)C1` [Example 45, 1-cyclobutyl-4-({1-[(4-pyridin-4-ylphenyl)carbonyl]azetidin-3-yl}carbonyl)-1,4-diazepane], for which the pIC50 is greater than 7.30.

As for `O=C(Oc1ccc(Cl)cc1)N1CC(C(=O)N2CCCN(C3CCC3)CC2)C1` [Example 67, 4-chlorophenyl 3-[(4-cyclobutyl-1,4-diazepan-1-yl)carbonyl]azetidine-1-carboxylate], the negative logarithm of the IC50 (pIC50) was greater than 7.30.

For the compound `O=C(CN1CCCCC1)N1CC(C(=O)N2CCCN(C3CCC3)CC2)C1` [Example 16, 1-cyclobutyl-4-{[1-(piperidin-1-ylacetyl)azetidin-3-yl]carbonyl}-1,4-diazepane], the pIC50 is greater than 7.30.

`O=C(C1CN(C(=O)N2CCOCC2)C1)N1CCCN(C2CCC2)CC1` [Example 3, 1-cyclobutyl-4-{[1-(morpholin-4-ylcarbonyl)azetidin-3-yl]carbonyl}-1,4-diazepane] gave a pIC50 greater than 7.30.

Compound `Cc1nnc(-c2ccc(C(=O)N3CC(C(=O)N4CCCN(C5CCC5)CC4)C3)cc2)o1` [Example 31, 1-cyclobutyl-4-[(1-{[4-(5-methyl-1,3,4-oxadiazol-2-yl)phenyl]carbonyl}azetidin-3-yl)carbonyl]-1,4-diazepane] gave a negative logarithm of the IC50 (pIC50) greater than 7.30.

In turn, `CC(=O)N1CC(C(=O)N2CCCN(C3CCC3)CC2)C1` [Example 70, 1-[(1-acetylazetidin-3-yl)carbonyl]-4-cyclobutyl-1,4-diazepane] showed a pIC50 greater than 7.30.

As for `CNC(=O)c1ccc(C(=O)N2CC(C(=O)N3CCCN(C4CCC4)CC3)C2)cn1` [Example 77, 5-({3-[(4-cyclobutyl-1,4-diazepan-1-yl)carbonyl]azetidin-1-yl}carbonyl)-N-methylpyridine-2-carboxamide], the pIC50 is greater than 7.30.

The compound `COC(=O)c1ccc(C(=O)N2CC(C(=O)N3CCCN(C4CCC4)CC3)C2)cn1` [Example 7, methyl 5-({3-[(4-cyclobutyl-1,4-diazepan-1-yl)carbonyl]azetidin-1-yl}carbonyl)pyridine-2-carboxylate] had a pIC50 greater than 7.30.

`O=C(CC1CC1)N1CC(C(=O)N2CCCN(C3CCC3)CC2)C1` [Example 32, 1-cyclobutyl-4-{[1-(cyclopropylacetyl)azetidin-3-yl]carbonyl}-1,4-diazepane] showed a negative-log IC50 (pIC50) greater than 7.30.

Regarding `CN(Cc1ccc(C#N)cc1)C(=O)N1CC(C(=O)N2CCCN(C3CCC3)CC2)C1` [Example 64, N-(4-cyanobenzyl)-3-[(4-cyclobutyl-1,4-diazepan-1-yl)carbonyl]-N-methylazetidine-1-carboxamide], the negative logarithm of the IC50 (pIC50) was greater than 7.30.

Compound `O=C(NCC1CCCCC1)N1CC(C(=O)N2CCCN(C3CCC3)CC2)C1` [Example 56, 3-[(4-cyclobutyl-1,4-diazepan-1-yl)carbonyl]-N-(cyclohexylmethyl)azetidine-1-carboxamide] had a pIC50 greater than 7.30.

Regarding `O=C(C1CN(C(=O)C2CCCCC2)C1)N1CCCN(C2CCC2)CC1` [Example 4, 1-cyclobutyl-4-{[1-(cyclohexylcarbonyl)azetidin-3-yl]carbonyl}-1,4-diazepane], the pIC50 was greater than 7.30.

The compound `O=C(c1ccc(-n2ccnc2)nc1)N1CC(C(=O)N2CCCN(C3CCC3)CC2)C1` [Example 12, 1-cyclobutyl-4-[(1-{[6-(1H-imidazol-1-yl)pyridin-3-yl]carbonyl}azetidin-3-yl)carbonyl]-1,4-diazepane] showed a pIC50 greater than 7.30.

Compound `O=C(c1ccc(-c2cccnc2)cc1)N1CC(C(=O)N2CCCN(C3CCC3)CC2)C1` [Example 44, 1-cyclobutyl-4-({1-[(4-pyridin-3-ylphenyl)carbonyl]azetidin-3-yl}carbonyl)-1,4-diazepane] showed a pIC50 greater than 7.30.
